The text below walks through data of ChEMBL document CHEMBL1139041, “Design and synthesis of 2'-anilino-4,4'-bipyridines as selective inhibitors of c-Jun N-terminal kinase-3” (Bioorg Med Chem Lett, 2006).

One may read the solubility as how much of the substance goes into solution per volume. Low values mean little dissolved substance, high ones much dissolved substance. What is called half-life is the time needed for the level to fall by half in the phase considered. One may read the clearance as the volume of plasma or blood freed of the substance per unit of time. One may read the microsomal CLint as a measure of how fast metabolising enzymes remove a compound, apart from limits set by blood flow. High values mean faster metabolism, low ones greater metabolic stability. What is called bioavailability is dose-corrected exposure relative to a reference, in per cent. High values mean good availability, low ones poor availability.

Converted amounts (≈) assume the structure as drawn.

A short description of data set [1]: Solubility in phosphate buffer at pH 7.4. The format is physicochemical.
Data set [2] is described as follows: Half life in po dosed rat. Type of data set: ADME, organism-based. The following applies: in vivo.
Data set [3] can be described thus: Clearance in rat. The format is ADME, organism-based. The following applies: in vivo.
Data set [4] can be described thus: Intrinsic clearance in rat microsomes. Type of data set: ADME, Microsome. The following applies: liver microsomes.
Data set [5] is described as follows: Bioavailability in rat. The format is ADME, organism-based. The following applies: in vivo.
Data set [6] in a line: Permeability across Caco-2 cell membrane. The format is ADME, cell-based. The following applies: human, read-out: permeability. Background: Caco-2 cells form a polarised layer with tight junctions and transporters.

As for `COC1CCC(C(=O)Nc2cc(-c3ccnc(Nc4ccccc4)c3)ccn2)CC1` (configuration not stated), the concentration in solution in data set [1] (solubility) came to 8 µM (≈ 3.22 µg/mL). In data set [2], `O=C(Nc1cc(-c2ccnc(Nc3ccccc3)c2)ccn1)C1CCOC1` (configuration not stated) had a half-life of 4.7 h. Moreover, the clearance in data set [3] worked out at 30 mL/min/kg. This molecule came in with a microsomal CLint in data set [4] of 12 µL/min/mg. The bioavailability in data set [5] amounted to 16%. Also, in data set [6], the Papp turned out to be 29.9 ×10⁻⁶ cm/s. Turning to `CC(=O)N1CCC(C(=O)Nc2cc(-c3ccnc(Nc4ccccc4)c3)ccn2)CC1`, in data set [1], the concentration in solution (solubility) was 94 µM (≈ 39.1 µg/mL). Still for that read-out and setting: then `Cc1cnc(C(=O)Nc2cc(-c3ccnc(Nc4ccccc4)c3)ccn2)cn1`, with 40 µM (≈ 15.3 µg/mL); and `Fc1ccc(Nc2cc(-c3ccnc(Nc4ccc(F)cc4)c3)ccn2)cc1`, with less than 0.1 µM. Take `COCCC(=O)Nc1cc(-c2ccnc(Nc3ccccc3)c2)ccn1`: the solubility in data set [1] amounted to 20 µM (≈ 6.97 µg/mL). Same read-out and setting: then `O=C(Nc1cc(-c2ccnc(Nc3ccccc3)c2)ccn1)c1cccnc1`, with 17 µM (≈ 6.25 µg/mL); and `O=C(Nc1cc(-c2ccnc(Nc3ccccc3)c2)ccn1)c1ccco1`, with 4 µM (≈ 1.43 µg/mL).
